Consider one compound from patent publication US9623025B2 (priority 2009, dated 2017).

This experiment concerns the target hCA IX (Homo sapiens, UniProt Q16790). The experiment is described as follows: biochemical.

Structures are written as SMILES.

Take `Cc1cn(-c2cc(NC(=O)c3ccc(C)c(Nc4nccc(-c5cccnc5)n4)c3)cc(C(F)(F)F)c2)cn1` [Nilotinib, 4-methyl-3-[[4-(3-pyridinyl)-2-pyrimidinyl]amino]-N-[5-(4-methyl-1H-imidazol-1-yl)-3-(trifluoromethyl)phenyl] benzamide]: the Ki (in general, the equilibrium dissociation constant of an inhibitor or competing ligand from its target) was 0.0419 to 0.0757 µM.
